According to ChEMBL document CHEMBL5131385, “Novel piperazine based benzamide derivatives as potential anti-glioblastoma agents inhibiting cell proliferation and cell cycle progression” (Eur J Med Chem, 2022):
pIC50: −log10 of the molar value. The source made the active and inactive calls. The rule behind the calls is not given here.

Assays:
[1] = Antiproliferative activity against human U-87 MG cells assessed as inhibition of cell proliferation measured after 72 hrs by CCK8 assay; assay type: functional, cell-based, U-87MG ATCC
U-251 [2] = experiment: Antiproliferative activity against human U-251 cells assessed as inhibition of cell proliferation measured after 72 hrs by CCK8 assay; assay type: functional, cell-based; settings: U-251, 72 h
C6 = experiment: Antiproliferative activity against rat C6 cells assessed as inhibition of cell proliferation measured after 72 hrs by CCK8 assay; assay type: functional, cell-based; settings: C6, 72 h
[3] = Induction of apoptosis in human U-87 MG cells assessed as viable cells at 1.20 uM incubated for 72 hrs by Annexin V-FITC/PI staining based flow cytometry method (reference value: 96.84 %); assay type: functional, U-87MG ATCC; settings: read-out: Activity
[4] = Induction of apoptosis in human U-87 MG cells assessed as early apoptotic cells at 1.20 uM incubated for 72 hrs by Annexin V-FITC/PI staining based flow cytometry method (reference value: 2.53 %); assay type: functional, U-87MG ATCC; settings: dose 1.2 µM
[5] = Induction of apoptosis in human U-87 MG cells assessed as late apoptotic cells at 1.20 uM incubated for 72 hrs by Annexin V-FITC/PI staining based flow cytometry method (reference value: 0.42 %); assay type: functional, U-87MG ATCC; settings: dose 1.2 µM
[6] = Induction of apoptosis in human U-87 MG cells assessed as necrotic cells at 1.20 uM incubated for 72 hrs by Annexin V-FITC/PI staining based flow cytometry method (reference value: 0.21 %); assay type: functional, U-87MG ATCC; settings: dose 1.2 µM
U-251 [7] = experiment: Induction of apoptosis in human U-251 cells assessed as viable cells at 6 uM incubated for 72 hrs by Annexin V-FITC/PI staining based flow cytometry method (reference value: 96.22 %); assay type: functional; settings: read-out: Activity
U-251 [8] = experiment: Induction of apoptosis in human U-251 cells assessed as early apoptotic cells at 6 uM incubated for 72 hrs by Annexin V-FITC/PI staining based flow cytometry method (Rvb =1.96 %); assay type: functional
U-251 [9] = experiment: Induction of apoptosis in human U-251 cells assessed as late apoptotic cells at 6 uM incubated for 72 hrs by Annexin V-FITC/PI staining based flow cytometry method (Rvb =1.31 %); assay type: functional
U-251 [10] = experiment: Induction of apoptosis in human U-251 cells assessed as necrotic cells at 6 uM incubated for 72 hrs by Annexin V-FITC/PI staining based flow cytometry method (Rvb =0.51 %); assay type: functional
U-87MG ATCC [11] = experiment: Antitumor activity against human U-87 MG cells xenografted in BALB/c mouse assessed as decrease in tumor volume at 10 mg/kg,ip bid for 1 month; assay type: functional, organism-based; settings: time 1.0 months
U-87MG ATCC [12] = experiment: Antitumor activity against human U-87 MG cells xenografted in BALB/c mouse assessed as decrease in tumor weight at 10 mg/kg,ip bid for 1 month; assay type: functional, organism-based; settings: time 1.0 months

Structure (SMILES)	pIC50 (U-251 [2])	pIC50 [1]	pIC50 (C6)	other results
COCCN1CCN(c2ccc(NC(=O)OC(C)(C)C)cc2C(=O)Nc2ccc(CNC(=O)OCc3cccnc3)cc2)CC1	< 4.52	< 4.52	< 4.52	
CN1CCN(c2ccccc2C(=O)Nc2ccc(CNC(=O)OCc3cccnc3)cc2)CC1	5.20	5.90	6.28	
COCCN1CCN(c2ccc(C(F)(F)F)cc2C(=O)Nc2ccc(CNC(=O)OCc3cccnc3)cc2)CC1	< 4.52	5.07	4.86	
COCCN1CCN(c2ccc(Br)cc2C(=O)Nc2ccc(CNC(=O)OCc3cccnc3)cc2)CC1	4.61	5.58	5.58	
Cn1nnc2c(C(N)=O)ncn2c1=O [TEMOZOLOMIDE]	< 4.52	< 4.52	< 4.52	viability at 1.2 µM [3]: 96.2%; Activity [4]: 2.5%; Activity [5]: 0.98%; Activity [6]: 0.27%; viability at 6 µM (U-251 [7]): 96.2%; Activity (U-251 [8]): 1.6%; Activity (U-251 [9]): 1.73%; Activity (U-251 [10]): 0.49%; Activity (U-87MG ATCC [11]): Active; Activity (U-87MG ATCC [12]): Active
O=C(NCc1ccc(NC(=O)c2ccccc2N2CCOCC2)cc1)OCc1cccnc1	5.21	6.05	5.32	
COCCN1CCN(c2cccc(F)c2C(=O)Nc2ccc(CNC(=O)OCc3cccnc3)cc2)CC1	4.60	5.40	6.10	
COCCN1CCN(c2ccc(-c3ccccc3)cc2C(=O)Nc2ccc(CNC(=O)OCc3cccnc3)cc2)CC1	< 4.52	< 4.52	< 4.52	
COCCN1CCN(c2c(C)cccc2C(=O)Nc2ccc(CNC(=O)OCc3cccnc3)cc2)CC1	5.03	6.00	6.36	
CC(C)N1CCN(c2ccccc2C(=O)Nc2ccc(CNC(=O)OCc3cccnc3)cc2)CC1	5.22	6.60	6.39	
COCCN1CCN(c2ccc(OC)cc2C(=O)Nc2ccc(CNC(=O)OCc3cccnc3)cc2)CC1	4.69	5.46	5.98	
Nc1ccccc1NC(=O)c1ccc(CNC(=O)OCc2cccnc2)cc1 [ENTINOSTAT]	< 4.52	5.36	6.48	
CCCN1CCN(c2ccccc2C(=O)Nc2ccc(CNC(=O)OCc3cccnc3)cc2)CC1	5.17	6.38	6.44	
COCCN1CCN(c2ccc(C)cc2C(=O)Nc2ccc(CNC(=O)OCc3cccnc3)cc2)CC1	4.90	5.72	5.89	
O=C(NCc1ccc(NC(=O)c2ccccc2N2CCN(CC3CC3)CC2)cc1)OCc1cccnc1	4.97	5.97	6.10	
COCCN1CCN(c2ccc(Cl)cc2C(=O)Nc2ccc(CNC(=O)OCc3cccnc3)cc2)CC1	4.98	6.00	5.75	

Now those with a higher pIC50 (U-251 [2]), led by results:

pIC50 (U-251 [2])	Structure (SMILES)	pIC50 [1]	pIC50 (C6)	other results
5.23	O=C(NCc1ccc(NC(=O)c2ccccc2N2CCN(CCF)CC2)cc1)OCc1cccnc1	6.39	6.34	
5.27	CS(=O)(=O)N1CCN(c2ccccc2C(=O)Nc2ccc(CNC(=O)OCc3cccnc3)cc2)CC1	5.99	6.07	
5.34	CCN1CCN(c2ccccc2C(=O)Nc2ccc(CNC(=O)OCc3cccnc3)cc2)CC1	6.37	6.44	
5.39	O=C(NCc1ccc(NC(=O)c2ccccc2N2CCN(C3CCC3)CC2)cc1)OCc1cccnc1	6.21	5.99	
5.40	COCCN1CCN(c2ccc(N)cc2C(=O)Nc2ccc(CNC(=O)OCc3cccnc3)cc2)CC1	6.25	6.59	
5.47	COCCN1CCN(c2ccccc2C(=O)Nc2ccc(CNC(=O)OCc3cccnc3)cc2)CC1	6.40	6.62	
5.49	O=C(NCc1ccc(NC(=O)c2ccccc2N2CCN(CCO)CC2)cc1)OCc1cccnc1	6.19	6.54	
5.53	COCCN1CCN(c2cc(C)ccc2C(=O)Nc2ccc(CNC(=O)OCc3cccnc3)cc2)CC1	6.28	6.05	
5.57	O=C(NCc1ccc(NC(=O)c2ccccc2N2CCN(C3CC3)CC2)cc1)OCc1cccnc1	5.98	5.95	
5.63	O=C(NCc1ccc(NC(=O)c2ccccc2N2CCN(C3COC3)CC2)cc1)OCc1cccnc1	6.31	6.24	
5.64	COCCN1CCN(c2cc(F)ccc2C(=O)Nc2ccc(CNC(=O)OCc3cccnc3)cc2)CC1	6.28	6.66	
